Measurements as given in patent US5827837A, “Polyanion anti-inflammatory agents” (priority 1996, dated 1998).
“Also recorded” adds a separate entry of the source.

Tests used:
[1] = biological target: T1, P-selectin-lg fusion protein (Homo sapiens, UniProt P16109); assay: Competition ELISA: binding of P-selectin-Ig to immobilized BSA-sLe^x; conditions: for IC50: read-out: IC50, P-selectin binding
T1 construct: Each selectin-lg contains the lectin domain, epidermal growth factor domain, and one (L-selectin-lg), two (P-selectin-lg) or six (E-selectin-lg) complement regulatory repeats; made in house
T1 sequence (P16109 with tags, fused parts or gaps limits assumed): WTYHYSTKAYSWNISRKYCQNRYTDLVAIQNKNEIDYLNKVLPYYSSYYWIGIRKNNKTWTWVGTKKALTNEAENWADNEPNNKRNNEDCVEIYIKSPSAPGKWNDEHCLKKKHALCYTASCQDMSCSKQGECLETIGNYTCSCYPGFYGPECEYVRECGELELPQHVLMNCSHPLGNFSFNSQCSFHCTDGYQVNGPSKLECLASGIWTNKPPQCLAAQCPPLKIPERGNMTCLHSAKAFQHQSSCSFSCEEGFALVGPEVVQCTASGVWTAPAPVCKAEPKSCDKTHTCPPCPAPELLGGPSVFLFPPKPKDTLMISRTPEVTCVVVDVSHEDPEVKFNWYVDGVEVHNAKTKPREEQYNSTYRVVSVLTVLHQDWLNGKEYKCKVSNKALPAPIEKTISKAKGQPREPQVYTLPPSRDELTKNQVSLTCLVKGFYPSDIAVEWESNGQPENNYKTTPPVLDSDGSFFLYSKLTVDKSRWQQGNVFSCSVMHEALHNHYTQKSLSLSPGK
Text: (§1) Selectin-lg fusion proteins are recombinant chimeric molecules containing extracellular regions of selectins coupled to the hinge, CH2, and CH3 regions of human IgG1 (Aruffo, A., et al., Cell, 67:35, 1991; Walz, G., et al., Science, 250:1132, 1990). Each selectin-lg contains the lectin domain, epidermal growth factor domain, and one (L-selectin-lg), two (P-selectin-lg) or six (E-selectin-lg) complement regulatory repeats of the parent molecules. DNAs encoding selectin-Ig inserted in pCDM7 allowed transient expression of recombinant proteins in COS cells as previously described (Seed, B., et al., Proc. Natl. Acad. Sci., U.S.A., 84:3365, 1987; Aruffo, A., Current Protocols In Molecular Biology, eds. Ausubel, F. M., et al, 16:13.1, Greene Publishing Associates and Wiley-lnterscience, New York, N.Y., 1992). These DNAs were also ligated into pNUT (Palmiter, R. D., et al, Cell, 50:435, 1987) for amplification and stable expression in BHK cells. The fusion proteins were affinity purified from culture media using protein A (Pierce Chemical Company, Rockford, Ill.) or protein G (Pharmacia, Piscataway, N.J.) Sepharose, as previously described (Aruffo, A., et al., Cell, 67:35, 1991; Aruffo, A., Current Protocols In Molecular Biology, eds. Ausubel, F. M., et al, supra, 1992). Competition binding ELISAs using P- and E-selectin-lg were performed essentially as described (Nelson, R. M., et al., J. Clin. Invest., 91:1157, 1993), except that the assay buffer was 20 mM HEPES pH 7.4, 150 mM NaCl, 2 mM CaCl2, and 0.25 mM thimerosal, containing 10 mg/ml BSA, protease-free, (Miles Inc., Kankakee, Ill.). Selectin concentrations were from 10 to 30 nM. […] To increase L-selectin binding, an assay similar to that previously described was used (Foxall, C., et al., J. Cell Biol., 117:895, 1992), in which the L-selectin-lg (10-20 nM) was allowed to form aggregates with HRP-conjugated anti-lg antibody for 30 minutes prior to addition of inositols and incubation on the BSA-sLe^x -coated plate. IC50 values were calculated by fitting binding data to the equation: fraction of maximal binding=IC50 […] using nonlinear least squares analysis software (Origin, Microcal Inc, Northampton, Mass.). InsP6 (dodecasodium salt), InsS6 (hexapotassium salt), myo-inositol 1 monophosphate (cyclohexylammonium salt), and myo-inositol were from Sigma Chemical Company (St. Louis, Mo.). Stock solutions were prepared daily in 0.9% NaCl and sterilized by 0.22 μm filtration. InsP6 solutions were adjusted at pH 7.4 with HCl.
(§2) L-, P-, or E-selectin-lg fusion proteins were incubated for 2-3 hours on microtiter plates coated with the neoglycoprotein BSA-sLe^x, the plates washed, and bound selectin-lg was detected using a peroxidase-conjugated antibody directed against the lg portion and a chromogenic substrate. To determine blocking activity, solution-phase lnsP6 (.circle-solid.), InsS6 (.largecircle.), or inositol (.box-solid.) at the indicated concentrations were added to the solutions containing selectin-Ig fusion proteins prior to transfer to microtiter plates (competition ELISA).

[2] = biological target: T2, P-selectin (P-COS) (Homo sapiens, UniProt P16109); assay: PMN adhesion to P-selectin transfected COS cells (P-COS); assay type: cell-based; conditions: for PMN adhesion to P-selectin transfected COS: inositol up to 10 mM, InsP6 0.5 mM
T2 construct: adhesion of human PMN or HL60
T2 sequence (P16109 42-830): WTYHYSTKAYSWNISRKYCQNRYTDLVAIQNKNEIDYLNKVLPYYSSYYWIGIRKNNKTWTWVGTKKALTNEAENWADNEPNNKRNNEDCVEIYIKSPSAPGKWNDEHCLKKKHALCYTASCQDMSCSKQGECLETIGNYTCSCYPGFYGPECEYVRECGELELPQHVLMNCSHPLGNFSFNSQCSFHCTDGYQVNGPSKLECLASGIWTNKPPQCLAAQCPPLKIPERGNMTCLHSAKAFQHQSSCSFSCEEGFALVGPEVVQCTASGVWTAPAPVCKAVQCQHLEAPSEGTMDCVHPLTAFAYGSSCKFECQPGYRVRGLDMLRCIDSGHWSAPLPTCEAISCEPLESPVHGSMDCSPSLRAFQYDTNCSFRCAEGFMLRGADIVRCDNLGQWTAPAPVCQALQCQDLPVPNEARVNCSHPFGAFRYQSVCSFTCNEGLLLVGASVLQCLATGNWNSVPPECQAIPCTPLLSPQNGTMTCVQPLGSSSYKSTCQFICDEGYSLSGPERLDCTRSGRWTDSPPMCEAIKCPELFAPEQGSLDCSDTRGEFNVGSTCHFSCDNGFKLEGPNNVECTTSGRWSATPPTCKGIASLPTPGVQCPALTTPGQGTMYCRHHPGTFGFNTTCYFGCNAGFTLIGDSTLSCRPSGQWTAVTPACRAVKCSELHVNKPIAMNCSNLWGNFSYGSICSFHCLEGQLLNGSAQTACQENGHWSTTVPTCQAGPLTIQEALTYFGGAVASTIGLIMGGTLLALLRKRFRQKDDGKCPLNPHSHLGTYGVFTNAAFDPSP
Procedure: COS-1 cells were transfected as described (Seed, B., et al., Proc. Natl. Acad. Sci., U.S.A., 84:3365, 1987; Aruffo, A., Current Protocols In Molecular Biology, eds. supra, 1992) with pCDM7/pCDM8 expression vectors containing the full-length E-, P- and L-selectin cDNA. Transfected COS-1 cells were seeded on gelatin coated coverslips.

[3] = biological target: T3, E-selectin-lg fusion protein (Homo sapiens, UniProt P16581); assay: Competition ELISA: binding of E-selectin-Ig to immobilized BSA-sLe^x; conditions: BSA-sLe^x competition ELISA
T3 construct: Each selectin-lg contains the lectin domain, epidermal growth factor domain, and one (L-selectin-lg), two (P-selectin-lg) or six (E-selectin-lg) complement regulatory repeats; made in house
T3 sequence (P16581 with tags, fused parts or gaps limits assumed): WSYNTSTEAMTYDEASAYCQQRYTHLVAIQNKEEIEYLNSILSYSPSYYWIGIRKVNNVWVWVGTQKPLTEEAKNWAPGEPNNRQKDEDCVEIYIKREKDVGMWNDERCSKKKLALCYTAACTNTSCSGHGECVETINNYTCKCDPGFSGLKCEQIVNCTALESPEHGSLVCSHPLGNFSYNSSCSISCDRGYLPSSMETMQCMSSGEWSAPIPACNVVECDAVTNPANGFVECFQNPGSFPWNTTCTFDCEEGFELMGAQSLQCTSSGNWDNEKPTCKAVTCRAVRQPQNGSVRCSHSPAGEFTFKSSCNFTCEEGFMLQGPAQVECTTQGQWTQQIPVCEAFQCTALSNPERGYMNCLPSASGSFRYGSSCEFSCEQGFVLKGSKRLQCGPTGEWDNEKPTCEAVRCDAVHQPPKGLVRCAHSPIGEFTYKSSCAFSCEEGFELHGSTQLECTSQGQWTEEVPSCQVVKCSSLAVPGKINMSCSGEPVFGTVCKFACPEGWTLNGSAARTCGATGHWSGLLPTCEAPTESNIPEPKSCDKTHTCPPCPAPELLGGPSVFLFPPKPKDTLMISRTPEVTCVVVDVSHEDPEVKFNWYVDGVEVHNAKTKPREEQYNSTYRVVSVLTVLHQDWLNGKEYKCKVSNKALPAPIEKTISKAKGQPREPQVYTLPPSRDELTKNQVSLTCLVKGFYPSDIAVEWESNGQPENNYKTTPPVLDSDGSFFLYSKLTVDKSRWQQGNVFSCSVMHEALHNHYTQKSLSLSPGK
Text: as §1, §2

[4] = tested on: PMN within the peritoneal cavity; assay: Thioglycollate-induced peritoneal inflammation, PMN accumulation; assay type: in vivo, mice (Balb/c); conditions: mice

Compound | blocking of P-selectin-Ig binding ([1]; BSA-sLe^x competition ELISA) | PMN adhesion to P-selectin transfected COS [2] | inhibition of E-selectin-Ig binding [3] | inhibition of PMN accumulation, thioglycollate model ([4]; 400 μmol/kg, 1 experiment) [%] | IC50 ([1]; BSA-sLe^x competition ELISA) [mM] | inhibition at 5000 µM ([2]; COS, 5 mM, read-out: blocking of PMN adhesion to P-selectin transfected COS) [%] | inhibition of PMN accumulation, single subcutaneous injection ([4]; 40-100 μmol/kg s.c. 3 min after thioglycollate) | reduction in PMN recovered from the peritoneal cavity ([4]; i.v. at 40 and 80 min, total 80 μmol/kg, PMN at 120 min, 3 experiments) [%] | blocking of P-selectin-Ig at reduced Ca^2+ ([1]; Ca^2+ reduced to 0.15 mM)
O[C@H]1[C@H](O)[C@@H](O)[C@H](O)[C@@H](O)[C@H]1O [myo-inositol, reference compound] | not myo-isositol, blocked binding | no effect at concentrations up to 10 mM | – | – | – | – | – | – | –
O=S(=O)(O)O[C@H]1[C@H](OS(=O)(=O)O)[C@@H](OS(=O)(=O)O)[C@H](OS(=O)(=O)O)[C@@H](OS(=O)(=O)O)[C@H]1OS(=O)(=O)O [InsS6, myo-inositol hexakissulfate] | – | – | failed to inhibit the binding of E-selectin-lg at concentrations up to 5 mM | 33±13 | 3.2 ± 0.5 | 63 | – | – | –
O=P(O)(O)O[C@H]1[C@H](OP(=O)(O)O)[C@@H](OP(=O)(O)O)[C@H](OP(=O)(O)O)[C@@H](OP(=O)(O)O)[C@H]1OP(=O)(O)O [InsP6, myo-inositol hexakisphosphate] | – | blocked PMN adhesion to P-COS | failed to inhibit the binding of E-selectin-lg at concentrations up to 5 mM; also recorded: did not block E-selectin-lg binding | – | 0.16 ± 0.04 | – | 46-59% | 58±3 | not enhanced
